Measured values as given in patent publication US20150037341A1, “Diagnostic and Therapeutic Method” (Plysackaridforskning i Uppsala AB, priority 2011, published 2015).

Columns and labels:
[1] = molecular target: T1, full-length TTR (native, dissociated or aggregated) (Homo sapiens, UniProt P02766); assay: Nitrocellulose-filter trapping of 3H-labeled heparin bound to full-length TTR; assay type: binding
T1 construct: Equal mole of TTR-peptides or full-length protein (with or without acidic dissociation); made in house; host or cells: bacteria
Method: (A) TTR amino acid sequence where histidine “(+)” and other basic amino acids “+” are marked. (B) Equal mole of TTR-peptides or full-length protein (with or without acidic dissociation), were incubated with ^3H-labeled heparin (1500 cpm) at pH 5.0. The amount of ^3H-labeled heparin bound to the peptides was analyzed using a nitrocellulose-filter trapping method.
Recombinant wild type TTR (500 μM) was dissolved in phosphate buffer (pH 7.4 or 2.7) and incubated at 37° C. for the time period as indicated. (a) The incubated samples were analyzed for their degree of aggregation with native PAGE. (b) The samples were incubated with ^3H-labelled heparin for 30 min at room temperature. The amount of heparin bound to the samples with different aggregation degree was analyzed by a nitrocellulose-filter trapping method.

[2] = molecular target: T2, dissociated TTR immobilized onto a Biacore sensor chip (Homo sapiens, UniProt P02766); assay: Surface plasmon resonance (Biacore), heparin/HS over immobilized TTR; assay type: binding
T2 construct: made in house; host or cells: bacteria
Method: (A) Dissociated TTR was immobilized onto a Biacore sensor chip and heparin (10 μM) was allowed to interact with the immobilized TTR in neutral or in mildly acidic conditions. (B) HS II (10 μM) binding to TTR at different pH was monitored and the response for each sample is expressed as response units (RU). […] (C) TTR (50 μM) incubated with heparin or HS II for 7 days at pH 5.0 or pH 7.4 was analyzed by ThT fluorescence. Data represent triplicate experiments (means±SEM).
Dissociated TTR was immobilized onto a Biacore sensor chip. Heparin (A), HS II (B) or HS I (C) were injected in a concentration series (ranging from 0.001-70 μM) over the surface at pH 5.0. The response for each concentration was measured at the steady-state region of the curve. The apparent equilibrium dissociation constant (KD) was calculated by plotting the response at steady-state for each concentration versus heparin/HS concentration. The data were fitted to the equation: Response=(Rmax*C)/(KD+C), where C is the concentration of heparin/HS. Two analyte flow rates (20 and 30 μl/min) were tested to assess possible effects of mass transport limitations in the system. […] The presented values are average value of three independent experiments.
(A) Equal amount of dissociated or native protein was immobilized onto a Biacore sensor chip and HS II was allowed to interact with the immobilized TTR at pH 5.0. (B) The values of the HS II-TTR interaction signal were obtained by repeated experiments using three chips with different ligand densities (250-3000 RU). The signals were normalized to a ligand density of 1000 RU and average value is shown. Statistical analysis was done by t test.
Interaction of TTR with heparin/HS was evaluated using a Biosensor system (Biacore2000). TTR was dissociated in acidic buffer (pH 2.7) and then diluted into a 50 mM NaAc (pH 5.0) coupling buffer and immobilized onto a CM5 sensor chip to a level of 3000 RU using an amine-coupling kit (GE Healthcare, Uppsala, Sweden). For binding and kinetic analysis, heparin or HS was injected (concentrations indicated in figure legend) over the surface and equilibrated at different pH. The surface was regenerated after each sample with a 30 s wash step of 0.5 M NaCl. All obtained sensorgrams were double-reference subtracted in Biacore evaluation software 2.0, using the reference flow cell and buffer blank sample.

Substance: heparin
- Binding of 3H-labelled heparin to aggregated TTR ([1]; TTR 500 μM pre-incubated at pH 7.4 or 2.7, heparin 30 min at room temperature): binds to aggregated TTR
- Binding of 3H-labeled heparin to dissociated versus native full-length TTR ([1]; pH 5.0): preferentially bound to dissociated TTR
- Binding to dissociated TTR (SPR response) ([2]; pH 5.0 (mildly acidic), 10 μM): observed
- Affinity of TTR for heparin relative to HS II ([2]; pH 5.0, apparent KD from steady state): 10 fold
